Assays:
[1] = molecular target: T1, hNGAL (Homo sapiens, UniProt P80188); experiment: Cell proliferation (MTT) in hNGAL-treated human cardiac fibroblasts; assay type: cell-based
T1 construct: purchased R&D Systems
Procedure: Primary human cardiac fibroblasts (HCF) were obtained from Promocell (Heidelberg, Germany) and maintained in Fibroblast Media 3 following manufacturer’s instructions (Promocell). Cells were used between passages 5 and 7. Cells were stimulated with recombinant hNGAL (500 ng/mL, R&D Systems) or with TGFβ (10 ng/mL, R&D Systems) for 24 h. To assess cell proliferation the MTT test was used following provider’s instructions (Roche). For protein analysis. Primary Mouse Kidney Fibroblasts (MKF) were isolated from Wild Type (WT) mice. Briefly, 8 weeks old mice were sacrificed by cervical dislocation and kidneys were cleaned and rinsed in cold DPBS (Dulbecco's Phosphate-Buffered Saline). The renal cortex was minced and incubated in Dulbecco’s modified eagle medium/Nutrient mixture F-12 (DMEM/F12, Sigma) containing 1 mg/mL collagenase A (Roche) during 25 min at 37 °C. The digestion was inactivated by adding culture medium (DMEM/F12 + 10% FBS) then the cell suspension was passed through a 100-μm cell strainer. After centrifugation, the pellet (containing MKF) was diluted with culture medium then plated in 75 cm^2 culture flask. After 24 h MKF were washed with DPBS before replacement of fresh culture medium. Thereafter, culture medium was changed every 48 h. Once 70–80% confluent, MKF were trypsinized and plated in 12 or 6-well plates. For experimental use, MKF were starved with culture medium containing only 3% FBS. MKF were treated with mNGAL (500 ng/mL, R&D Systems) or with TGFβ (10 ng/mL, R&D Systems) for 6 h for gene expression analysis.
Cell proliferation was assessed using the MTT Proliferation Assay (Sigma).

[2] = test system: myocardial infarction mouse model; experiment: Myocardial infarction (MI) mouse model, left coronary artery ligation; assay type: in vivo; conditions: MI mice
Procedure: Animals were housed in a climate-controlled facility with a 12-h/12-h light/dark cycle and provided free access to food and water. Experiments were approved by the Darwin ethics committee of Sorbonne University, and conducted according to the INSERM animal care and use committee guidelines. The NGAL inhibitor GP1 was incorporated in regular chow (A04, Safe, Augy, France) at the dose of 625 mg GP1/kg of chow to achieve a low dose of 100 mg/kg/day of GP1 administered to the mice (based on a daily consumption of 4 g of chow).
Myocardial infarction (MI) was induced as previously described. Briefly, Chronic Heart Failure (CHF) resulted from left ventricle MI that was induced by left coronary artery ligation in 8 week-old male mice. Mice were anesthetized with intraperitoneal injections of ketamine (90 mg/kg, Merial, France) and xylazine (3.6 mg/kg, Bayer, France), followed by artificial ventilation. Anesthesia and sedation were controlled by monitoring heart rate and by performing paw pinch reflex and corneal reflex tests, before a thoracotomy was performed. The left main coronary artery was ligated close to its origin. After surgery, analgesia was prolonged during the awakening phase by an intramuscular injection of Beprucare (50 µg/kg). Post-infarction mortality in this mouse model is about 30–40%, primarily occurring around days 4–7 after MI. Sham-operated mice (control) were subjected to the same protocol except that the artery was not ligated. The inhibitor was administered the 8 day after MI for the indicated period. Tissue were harvested after 12 weeks after MI. Left ventricle diastolic and systolic diameters were measured in anesthetized (isofluorane 1.5%) mice, according to the American Society of Echocardiography’s leading-edge method (using Vivid 7 echograph a 14 MHz probe). In addition, LV outflow velocity was measured by pulsed waves, and CO was calculated as follows:
CO=aortic VTI×π×LV outflow diameter/2^2×heart rate, where VTI is velocity–time integral.
LV hemodynamic was assessed as described previously. Briefly, mice were anesthetized (chloral 320 mg/kg, IP) and the carotid artery cannulated with a pressure–volume catheter (SPR839, Millar-Instruments, USA) and the catheter was advanced into the LV. Pressure–volume loops were obtained at baseline and during loading by gently occluding the abdominal aorta. LV end-systolic and end-diastolic pressures, dP/dtmax/min, LV relaxation constant tau and were measured/calculated with IOX software (EMKA, France). Systolic BP was measured by tail-cuff plethysmography in trained conscious mice at weeks 8–10 using a BP2000 Visitech model. BP was measured every day in the same room at the same hour for 5 consecutive days. The BP measurements (expressed as mmHg) presented are the averages of the last 3 days.
In the MI model, heart was harvested after hemodynamics and the atria and the ventricles were separated and weighed individually. A section of the left ventricle was immersed in Bouin fixative solution. In the CKD model, kidneys were harvested and a section was immersed in paraformaldehyde fixative solution. After fixation, the sections were dehydrated and embedded in paraffin. From these sections, 5-μm thick histologic slices were obtained and were stained with Sirius Red. For the measurement of cardiac or renal collagen density, slides were examined and photographed under a light microscope (Zeiss) at 40× magnification. Collagen content was calculated as percentage of collagen area to total area of the image. Perivascular collagen was excluded from the analysis. For tubular lesions scoring, kidney slides were stained with Periodic Acid-Schiff kit (Sigma) and the score of tubules with injury (epithelial cell necrosis and detachment, and tubular dilation) was analyzed blinded to the experimental groups. […]

T1 sequence (P80188 21-198): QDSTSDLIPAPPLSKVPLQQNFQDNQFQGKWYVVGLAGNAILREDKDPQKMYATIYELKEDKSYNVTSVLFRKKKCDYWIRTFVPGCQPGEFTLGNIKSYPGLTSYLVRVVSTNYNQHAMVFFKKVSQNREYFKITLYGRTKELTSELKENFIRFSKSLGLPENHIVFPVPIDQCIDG

## CC(=O)c1cccc(S(=O)(=O)NCc2ccccc2-n2cccn2)c1 [GPZ614741]
[1]; 10 µM, Fig. 1E
  hNGAL-induced cell proliferation, in words: blocked
[1]; Fig. S2
  Dose–response on proliferation induced by NGAL: able to block the proliferative effects of NGAL at 1 and 10 µM, but not at lower concentrations
[2]; GP1 100 mg/kg/day in the food, three months, MI untreated 0.062 ± 0.005
  SV (stroke volume): 0.086 ± 0.004 ml/beat
[2]; GP1 100 mg/kg/day in the food, three months, MI untreated 5.47 ± 0.13
  LVESD (left ventricular end systolic diameter): 4.90 ± 0.39 mm
[2]; GP1 100 mg/kg/day in the food, three months, MI untreated 5.82 ± 0.32
  tau 1/2 (relaxation constant): 4.33 ± 0.21
[2]; GP1 100 mg/kg/day in the food, three months, MI untreated 5.91 ± 0.49
  LVEDP: 4.41 ± 0.57 mmHg
[2]; GP1 100 mg/kg/day in the food, three months, MI untreated 6.31 ± 0.12
  LVEDD (left ventricular end diastolic diameter): 5.88 ± 0.39 mm
[2]; GP1 100 mg/kg/day in the food, three months, MI untreated 7.97 ± 0.45
  tau e (relaxation constant): 6.08 ± 0.27
[2]; GP1 100 mg/kg/day in the food, three months, MI untreated 8.3 ± 0.3
  LVW/TL (left ventricle weight/tibia length): 8.8 ± 0.6 mg/mm
[2]; GP1 100 mg/kg/day in the food, three months, MI untreated 10.9 ± 0.4
  HW/TL (heart weight/tibia length): 11.3 ± 0.8 mg/mm
[2]; GP1 100 mg/kg/day in the food, three months, MI untreated 13.4 ± 1.0
  FS (fractional shortening): 17.2 ± 1.3 %
[2]; GP1 100 mg/kg/day in the food, three months, MI untreated 29.4 ± 1.9
  CO (cardiac output): 47.1 ± 3.3 mL/min
[2]; GP1 100 mg/kg/day in the food, three months, MI untreated 78.82 ± 2.76
  LVESP (left ventricular end systolic pressure): 82.31 ± 4.22 mmHg
[2]; GP1 100 mg/kg/day in the food, three months, MI untreated 3117 ± 253
  LV (dP/dtmin), relaxation index: 4487 ± 413
[2]; GP1 100 mg/kg/day in the food, three months, MI untreated 3894 ± 259
  LV (dP/dtmax), contractility index: 4501 ± 320
[2]; GP1 100 mg/kg/day in the food, Fig. 2A
  LV interstitial collagen deposition vs non-treated MI group: significantly lower
[2]; GP1-treated, untreated 39.0 ± 2.3, n = 4–9, NS
  Infarct size in mid LV sections: 40.0 ± 1.8%
[2]; GP1, Fig. 2E
  Upregulation of cardiac IL6 protein and inflammatory markers CD68, CD80, CD86: significantly prevented
[2]; three months of GP1, Fig. 2B–D
  Upregulation of Col I, αSMA and CTGF protein levels: significantly prevented

From PMC7844219, “Antifibrotic effect of novel neutrophil gelatinase-associated lipocalin inhibitors in cardiac and renal disease models” (Scientific Reports, 2021)
